Among the test systems are SF-295 CNS; OVCAR-5 ovarian; SK-MEL-5 melanoma; SK-MEL-28 melanoma; OVCAR-4 ovarian; HOP-62 NSCLC; UO-31 renal; K-562 leukemia; MCF7 breast; NCI/ADR-RES ovarian.
Holding throughout (experiment): NCI anticancer screen, dose series, 48 h

Values joined by “and” are separate entries in the source; they are usually repeats but may differ in a detail not shown here. Identical values can stand only once.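 Method: 48-hour compound exposure of cells in 96-well plates, five concentrations, linear interpolation of endpoints. GI50: concentration for 50% inhibition of growth. TGI: total growth inhibition.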

For `CCOC(=O)CC1=Nc2ccccc2SC1`, the TGI with SF-295 CNS is more than 100 µM; in the assay with OVCAR-5 ovarian, more than 100 µM; with SK-MEL-5 melanoma, more than 100 µM; with SK-MEL-28 melanoma, 2.73 µM; with OVCAR-4 ovarian, more than 100 µM; with HOP-62 NSCLC, more than 100 µM. Besides, the TGI in the assay with UO-31 renal is more than 100 µM.
Take `CCCCCCCCCCCCCCCC(=O)NCC(COP(=O)([O-])OCC[N+](C)(C)C)OCC` (stereo unspecified): the TGI worked out at 18.6 µM with SF-295 CNS; 22 µM with OVCAR-5 ovarian; 33.9 µM in the assay on SK-MEL-5 melanoma; 36.6 µM in the assay with SK-MEL-28 melanoma; 17.7 µM with OVCAR-4 ovarian; 20.1 µM in the assay with HOP-62 NSCLC. Moreover, in the assay on UO-31 renal, the TGI amounted to 32.9 µM.
Take `FC(F)(F)c1nc(-c2ccccc2Cl)[nH]c1C(F)(F)F`: the TGI in the assay with SF-295 CNS amounted to 2.03 µM; in the assay on K-562 leukemia, 4.29 µM; in the assay with SK-MEL-5 melanoma it was 0.833 µM; in the assay on SK-MEL-28 melanoma, 5.32 µM; with OVCAR-4 ovarian, 22.1 µM; in the assay on HOP-62 NSCLC, 1.35 µM. In addition, the TGI in the assay on UO-31 renal stood at 2.15 µM.
Regarding `C1COCCN1.C1COCCN1.N.N.[Cl-].[Pt+2]`, the GI50 in the assay with SF-295 CNS, with OVCAR-5 ovarian, in the assay on SK-MEL-5 melanoma, in the assay on SK-MEL-28 melanoma, in the assay on OVCAR-4 ovarian and with UO-31 renal was more than 100 µM each time. In addition, the TGI in the assay with SF-295 CNS, with OVCAR-5 ovarian, in the assay with SK-MEL-5 melanoma, in the assay on SK-MEL-28 melanoma, in the assay with OVCAR-4 ovarian and with UO-31 renal was more than 100 µM in each case.
`Cc1cc2c(cc1C)[n+](=O)c(C(=O)C/C(=N/NC(=O)c1ccccc1O)C(=O)Nc1ccccc1C(C)C)c(C)n2[O-]`: the TGI in the assay with SF-295 CNS, in the assay on K-562 leukemia, in the assay on OVCAR-5 ovarian, in the assay on SK-MEL-5 melanoma, with SK-MEL-28 melanoma and in the assay on OVCAR-4 ovarian was more than 100 µM each time. The molecule further yielded a TGI in the assay on HOP-62 NSCLC of more than 100 µM.
With `CCc1c2c(nc3cc4c(cc13)OCO4)-c1cc3c(c(=O)n1C2)COC(=O)[C@]3(O)CC`, the GI50 is less than 0.001 µM in the assay on SF-295 CNS; 0.885 µM and 0.313 µM with OVCAR-5 ovarian; less than 0.001 µM in the assay on MCF7 breast; 0.764 µM and 1.14 µM with SK-MEL-28 melanoma; 0.323 µM and 1.27 µM in the assay on OVCAR-4 ovarian; 0.0103 µM in the assay on UO-31 renal. Moreover, the TGI with K-562 leukemia was more than 100 µM; in the assay with OVCAR-5 ovarian, 2.27 µM; in the assay with SK-MEL-5 melanoma it was 0.0648 µM and 0.143 µM; in the assay with SK-MEL-28 melanoma it was more than 100 µM; in the assay with OVCAR-4 ovarian, more than 100 µM; in the assay with HOP-62 NSCLC it was more than 100 µM. Also, in the assay with UO-31 renal, the TGI is 0.401 µM and 0.0689 µM.
Consider `N#CC1(c2nc3ccccc3o2)C(=O)C(=O)N(C2C3CC4CC(C3)CC2C4)C(=O)C1=O` (stereo unspecified), for which the TGI in the assay with SF-295 CNS, in the assay with K-562 leukemia, with OVCAR-5 ovarian, in the assay with SK-MEL-5 melanoma, with SK-MEL-28 melanoma and with OVCAR-4 ovarian was more than 100 µM each time. Also, the TGI in the assay with HOP-62 NSCLC and in the assay with UO-31 renal was more than 100 µM each time.
For `CCOC(=O)C1(CC)CCCCC(=O)N1` (stereo unspecified), the TGI with SF-295 CNS, in the assay with K-562 leukemia, in the assay on SK-MEL-28 melanoma, in the assay on OVCAR-4 ovarian, in the assay on HOP-62 NSCLC and in the assay with UO-31 renal was more than 100 µM throughout.
As for `COc1ccc(/C=C/C=C(/C#N)C(N)=S)cc1`, the GI50 in the assay with SF-295 CNS is 31 µM; in the assay with K-562 leukemia, 29.9 µM; with OVCAR-5 ovarian, 34.3 µM; in the assay on SK-MEL-5 melanoma, 18.3 µM; in the assay with MCF7 breast, 29.5 µM; in the assay on SK-MEL-28 melanoma, 23.8 µM. Also, the figures for the GI50 in the assay on OVCAR-4 ovarian, in the assay with HOP-62 NSCLC and in the assay with UO-31 renal were 27.9 µM, 29.8 µM and 21.6 µM, respectively. Also, the TGI with SF-295 CNS is more than 100 µM; with K-562 leukemia, more than 100 µM; in the assay on OVCAR-5 ovarian it was 95.8 µM; in the assay with SK-MEL-5 melanoma, 36.4 µM; in the assay with MCF7 breast, more than 100 µM; with SK-MEL-28 melanoma, 65.7 µM. Further, the TGI is more than 100 µM in the assay with OVCAR-4 ovarian, 94.9 µM with HOP-62 NSCLC and 45.2 µM in the assay with UO-31 renal.
As for `CC(=O)OC1=C2CC3(C)OC(=O)CC(C)(C)C3=CC=C2C=C(C(C)C)C1=O` (stereo unspecified), the TGI was 3.14 µM in the assay with SF-295 CNS; more than 100 µM in the assay with K-562 leukemia; 2.24 µM in the assay on OVCAR-5 ovarian; 2.12 µM in the assay on SK-MEL-5 melanoma; 1.31 µM in the assay with SK-MEL-28 melanoma; 0.915 µM with OVCAR-4 ovarian. Also, the TGI worked out at 19.9 µM in the assay on HOP-62 NSCLC and 3.12 µM in the assay on UO-31 renal.
On to `CC(=O)c1ccc(Nc2cc(-c3ccccc3)nc3c(O)cccc23)cc1`, for which the GI50 is 37.2 µM in the assay on SF-295 CNS; 4.73 µM in the assay with K-562 leukemia; 54.5 µM in the assay with OVCAR-5 ovarian; 13 µM with SK-MEL-5 melanoma; 23.1 µM with SK-MEL-28 melanoma; 18.2 µM in the assay on OVCAR-4 ovarian. Besides, the GI50 in the assay on HOP-62 NSCLC is 10.6 µM; in the assay with UO-31 renal, 14 µM; in the assay on NCI/ADR-RES ovarian, 5.53 µM. Also, the TGI in the assay with SF-295 CNS is more than 100 µM; in the assay with K-562 leukemia, more than 100 µM; in the assay on OVCAR-5 ovarian, more than 100 µM; in the assay with SK-MEL-5 melanoma it was 26.7 µM; in the assay with SK-MEL-28 melanoma, 88.8 µM; in the assay with OVCAR-4 ovarian, 64.7 µM. Moreover, the TGI with HOP-62 NSCLC was found to be 36 µM; in the assay on UO-31 renal it was 53.9 µM; in the assay with NCI/ADR-RES ovarian, 34.9 µM.
As to `O=c1[nH]c2ccccc2cc1C(Cl)=C(Cl)Cl`, the TGI with SF-295 CNS, with K-562 leukemia, with OVCAR-5 ovarian, in the assay on SK-MEL-28 melanoma, in the assay with OVCAR-4 ovarian and with HOP-62 NSCLC was more than 100 µM throughout. Besides, in the assay with UO-31 renal, the TGI is more than 100 µM.
In the case of `C=C1C(=O)O[C@H]2[C@H]1CC/C(CNC(=O)c1c[nH]c3ccc(F)cc13)=C\CC[C@@]1(C)O[C@@H]21`, the GI50 in the assay on SF-295 CNS is 3.71 µM; in the assay with K-562 leukemia, 0.856 µM; with OVCAR-5 ovarian it was 1.9 µM; with SK-MEL-5 melanoma, 2.25 µM; in the assay with SK-MEL-28 melanoma, 1.33 µM; in the assay on OVCAR-4 ovarian, 3.17 µM. Moreover, the GI50 in the assay on HOP-62 NSCLC is 4.12 µM; in the assay on UO-31 renal, 1.14 µM; with NCI/ADR-RES ovarian, 4.13 µM. In addition, the TGI in the assay with SF-295 CNS is 17 µM; in the assay on K-562 leukemia it was 6.17 µM; in the assay with OVCAR-5 ovarian it was 4.82 µM; with SK-MEL-5 melanoma it was 5.56 µM; in the assay on SK-MEL-28 melanoma it was 3.16 µM; in the assay with OVCAR-4 ovarian, 15.2 µM. Moreover, the results for the TGI in the assay with HOP-62 NSCLC, in the assay on UO-31 renal and with NCI/ADR-RES ovarian were 19.7 µM, 2.48 µM and 19.3 µM, respectively.

These data come from PubChem BioAssay (NCI).
